According to patent publication US20250025443A1, “COMPOUNDS AND METHODS FOR TREATING CORONA VIRUSES” (CLEAR CREEK BIO, INC., priority 2021, published 2025):
pIC50: −log10 of the molar value.

What follows are compounds tested against SARS-CoV-2 Papain-Like Protease (PLpro) (Severe acute respiratory syndrome coronavirus 2 (2019-nCoV) (SARS-CoV-2), UniProt P0DTD1) (assay: biochemical). Settings: PLpro 6.25 nM, substrate 25 μM, 60 min at 25° C.; for more potent compounds PLpro 1 nM, 120 min; read-out: PLpro IC50.

COc1ccc(C)c(C(=O)N[C@H](C)c2cccc3ccccc23)c1 [Compound 136, (R)-5-Methoxy-2-methyl-N-(1-(naphthalen-1-yl)ethyl)benzamide] showed a pIC50 of 5.30 to 6.00.

Same assay, conditions: PLpro enzymatic fluorescence assay; class symbols; read-out: PLpro IC50

[2H]C([2H])([2H])N1CC[C@H]1COc1ccc(C)c(C(=O)NC2(c3cc(-c4cnc(C)o4)cc4ncccc34)CC2)c1 [Compound 782, (S)-2-Methyl-5-((1-(methyl-d3)azetidin-2-yl)methoxy)-N-(1-(7-(2-methyloxazol-5-yl)quinolin-5-yl)cyclopropyl)benzamide] and Cc1ccc(OC[C@@H]2CCN2C)cc1C(=O)NC1(c2cc(-c3ccoc3)cc3ncccc23)CC1 [Compound 655, (S)—N-(1-(7-(Furan-3-yl)quinolin-5-yl)cyclopropyl)-2-methyl-5-((1-methylazetidin-2-yl)methoxy)benzamide] cannot be ordered by pIC50: > 7.00 for the first, > 7.00 for the second.

Cc1ccc(OC[C@@H]2CCN2C)cc1C(=O)NC1(c2cc(-c3ccc(CN[C@H]4CC[C@@H](O)C4)s3)cc3ncccc23)CC1 [Compound 751, N-(1-(7-(5-((((1S,3R)-3-Hydroxycyclopentyl)amino)methyl)thiophen-2-yl)quinolin-5-yl)cyclopropyl)-2-methyl-5-(((S)-1-methylazetidin-2-yl)methoxy)benzamide] and Cc1ccc(OC[C@@H]2CCN2C)cc1C(=O)NC1(c2cc(-c3ccc(=O)[nH]c3)cc3ncccc23)CC1 [Compound 672, (S)-2-Methyl-5-((1-methylazetidin-2-yl)methoxy)-N-(1-(7-(6-oxo-1,6-dihydropyridin-3-yl)quinolin-5-yl)cyclopropyl)benzamide] cannot be ordered by pIC50: > 7.00 for the first, > 7.00 for the second.

[2H]C([2H])(Oc1ccc(C)c(C(=O)NC2(c3cc(OC)cc4ncccc34)CC2)c1)[C@@H]1CCN1C [Compound 797, (S)-N-(1-(7-Methoxyquinolin-5-yl)cyclopropyl)-2-methyl-5-((1-methylazetidin-2-yl)methoxy-d2)benzamide] and COc1cc(C2(NC(=O)c3cc(OCC4Cc5ccccc5CN4C)ccc3C)CC2)c2cccnc2c1 (stereo not drawn) [Compound 799, N-(1-(7-Methoxyquinolin-5-yl)cyclopropyl)-2-methyl-5-((2-methyl-1,2,3,4-tetrahydroisoquinolin-3-yl)methoxy)benzamide] cannot be ordered by pIC50: > 7.00 for the first, > 7.00 for the second.

CCCN(CCC)c1cc(C2(NC(=O)c3cc(OC[C@@H]4CCN4C)ccc3C)CC2)c2cccnc2c1 [Compound 771, (S)—N-(1-(7-(Dipropylamino)quinolin-5-yl)cyclopropyl)-2-methyl-5-((1-methylazetidin-2-yl)methoxy)benzamide] and Cc1ccc(OC[C@@H]2CCN2C)cc1C(=O)NC1(c2cc(N3CCOCC3)cc3ncccc23)CC1 [Compound 740, (S)-2-Methyl-5-((1-methylazetidin-2-yl)methoxy)-N-(1-(7-morpholinoquinolin-5-yl)cyclopropyl)benzamide] cannot be ordered by pIC50: > 7.00 for the first, > 7.00 for the second.

COc1cc(C2(NC(=O)c3cc(O[C@H]4CC[C@@H]5CNCCN5C4)ccc3C)CC2)c2cccnc2c1 [Compound 790] and COc1cc(C2(NC(=O)c3cc(OCC4c5ccccc5CCN4C)ccc3C)CC2)c2cccnc2c1 (stereo not drawn) [Compound 801, N-(1-(7-Methoxyquinolin-5-yl)cyclopropyl)-2-methyl-5-((2-methyl-1,2,3,4-tetrahydroisoquinolin-1-yl)methoxy)benzamide] cannot be ordered by pIC50: > 7.00 for the first, > 7.00 for the second.

First: C=Cc1cc(C2(NC(=O)c3cc(OC[C@@H]4CCN4C)c(NC(C)=O)cc3C)CC2)c2cccnc2c1 [Compound 746, (S)-4-Acetamido-2-methyl-5-((1-methylazetidin-2-yl)methoxy)-N-(1-(7-vinylquinolin-5-yl)cyclopropyl)benzamide]
Second: COc1cc(C2(NC(=O)c3cc(OC[C@@H]4CCN4C)ccc3F)CC2)c2ccc(C)nc2c1 [Compound 791, (S)-2-Fluoro-N-(1-(7-methoxy-2-methylquinolin-5-yl)cyclopropyl)-5-((1-methylazetidin-2-yl)methoxy)benzamide]
The pIC50 of the first is higher: > 7.00 for the first, 6.00 to 7.00 for the second. The first is the more potent here.

COc1cc(C2(NC(=O)c3cc(OC[C@@H](C)N)ccc3C)CC2)c2ccncc2c1 [Compound 537, (R)-5-(2-Aminopropoxy)-N-(1-(7-methoxyisoquinolin-5-yl)cyclopropyl)-2-methylbenzamide] and Cc1ccc(OCC(C)N)cc1C(=O)NC1(c2cc(-c3ccc(Cl)s3)cc3ccccc23)CC1 (stereo not drawn) [Compound 502, 5-(2-Aminopropoxy)-N-(1-(3-(5-chlorothiophen-2-yl)naphthalen-1-yl)cyclopropyl)-2-methylbenzamide] cannot be ordered by pIC50: > 7.00 for the first, > 7.00 for the second.

Going from [2H]C1([2H])C([2H])([2H])C1(NC(=O)c1cc(OC[C@@H]2CCN2C)ccc1C)c1cc(OC)cc2nc(C)ccc12 [Compound 804, (S)—N-(1-(7-Methoxy-2-methylquinolin-5-yl)cyclopropyl-2,2,3,3-d)-2-methyl-5-((1-methylazetidin-2-yl)methoxy)benzamide] to Cc1ccc([N+](=O)[O-])cc1C(=O)N[C@H](C)c1cccc2ccccc12 [Compound 104, (R)-2-Methyl-N-(1-(naphthalen-1-yl)ethyl)-5-nitrobenzamide], the pIC50 falls from > 7.00 to < 5.30.

Same assay, conditions: SARS-CoV-2 PLpro enzymatic fluorescence assay; read-out: PLpro IC50

First: Cc1ccc(OCC2CCN2C)cc1C(=O)NC1(c2cccc3c2OCCO3)CC1 (stereo not drawn) [Compound 432, N-(1-(2,3-Dihydrobenzo[b][1,4]dioxin-5-yl)cyclopropyl)-2-methyl-5-((1-methylazetidin-2-yl)methoxy)benzamide]
Second: Cc1ccc(OC[C@H]2CCN2C)cc1C(=O)NC1(c2cccc3ccccc23)CC1 [Compound 309, (R)-2-Methyl-5-((1-methylazetidin-2-yl)methoxy)-N-(1-(naphthalen-1-yl)cyclopropyl)benzamide]
The pIC50 of the first is lower: 6.00 to 7.00 for the first, > 7.00 for the second. The second is the more potent here.

Cc1ccc(OCC2CCN2C)cc1C(=O)NC1(c2cc(N(C)C)cc3ccccc23)CC1 (stereo not drawn) [Compound 495, N-(1-(3-(Dimethylamino)naphthalen-1-yl)cyclopropyl)-2-methyl-5-((1-methylazetidin-2-yl)methoxy)benzamide] and Cc1ccc(OC[C@@H]2CCN2C)cc1C(=O)NC1(c2cccc3nc(O)ccc23)CC1 [Compound 545, (S)-N-(1-(2-Hydroxyquinolin-5-yl)cyclopropyl)-2-methyl-5-((1-methylazetidin-2-yl)methoxy)benzamide] cannot be ordered by pIC50: > 7.00 for the first, > 7.00 for the second.

First: Cc1ccc(OCCN(C)C)cc1C(=O)NC1(c2ccccc2-c2ccncc2)CC1 [Compound 266, 5-(2-(Dimethylamino)ethoxy)-2-methyl-N-(1-(2-(pyridin-4-yl)phenyl)cyclopropyl)benzamide]
Second: Cc1ccc(OCCN(C)C)cc1C(=O)NC1(c2cccc3ccoc23)CC1 [Compound 370, N-(1-(Benzofuran-7-yl)cyclopropyl)-5-(2-(dimethylamino)ethoxy)-2-methylbenzamide]
The pIC50 of the first is lower: < 5.30 for the first, 6.00 to 7.00 for the second.

First: Cc1ccc(OCCN(C)C)cc1C(=O)NC1(c2cccc(C3=CCCC3)c2)CC1 [Compound 264, N-(1-(3-(Cyclopent-1-en-1-yl)phenyl)cyclopropyl)-5-(2-(dimethylamino)ethoxy)-2-methylbenzamide]
Second: Cc1ccc(OCCN(C)C)cc1C(=O)NC1(c2cccc(-c3ccsc3)c2)CC1 [Compound 325, 5-(2-(Dimethylamino)ethoxy)-2-methyl-N-(1-(3-(thiophen-3-yl)phenyl)cyclopropyl)benzamide]
The pIC50 of the first is lower: 5.30 to 6.00 for the first, 6.00 to 7.00 for the second.

First: COCc1cc2cc(C)c(C(=O)NC3(c4cccc5ccccc45)CC3)cc2[nH]1 [Compound 240, 2-(Methoxymethyl)-5-methyl-N-(1-(naphthalen-1-yl)cyclopropyl)-1H-indole-6-carboxamide]
Second: Cc1ccc(OC[C@H]2C[C@H](O)CN2)cc1C(=O)NC1(c2cccc3ccccc23)CC1 [Compound 414, 5-(((2R,4S)-4-Hydroxypyrrolidin-2-yl)methoxy)-2-methyl-N-(1-(naphthalen-1-yl)cyclopropyl)benzamide]
The pIC50 of the first is lower: 6.00 to 7.00 for the first, > 7.00 for the second.

CCCNc1cc(C2(NC(=O)c3cc(OC[C@@H]4CCN4C)ccc3C)CC2)c2cccnc2c1 [Compound 743, (S)-2-Methyl-5-((1-methylazetidin-2-yl)methoxy)-N-(1-(7-(propylamino)quinolin-5-yl)cyclopropyl)benzamide] and Cc1ccc(OC[C@H]2C[C@@H](F)CN2C)cc1C(=O)NC1(c2cccc3ccccc23)CC1 [Compound 437, 5-(((2R,4R)-4-Fluoro-1-methylpyrrolidin-2-yl)methoxy)-2-methyl-N-(1-(naphthalen-1-yl)cyclopropyl)benzamide] cannot be ordered by pIC50: > 7.00 for the first, > 7.00 for the second.

First: Cc1ccc(OC2CN(Cc3ccccc3)C(C)(C)C2)cc1C(=O)NC1(c2cccc3ccccc23)CC1 (stereo not drawn) [Compound 491, 5-((1-benzyl-5,5-dimethylpyrrolidin-3-yl)oxy)-2-methyl-N-(1-(naphthalen-1-yl)cyclopropyl)benzamide]
Second: Cc1ccc(OC[C@H](C)N)cc1C(=O)NC1(c2cc(-c3cccs3)cc3ccccc23)CC1 [Compound 539, (S)-5-(2-Aminopropoxy)-2-methyl-N-(1-(3-(thiophen-2-yl)naphthalen-1-yl)cyclopropyl)benzamide]
The pIC50 of the first is lower: 6.00 to 7.00 for the first, > 7.00 for the second. The second is the more potent here.

Cc1ccc(OCCN(C)C)cc1C(=O)NC1(c2cccc(Oc3ccccc3)c2)CC1 [Compound 270, 5-(2-(Dimethylamino)ethoxy)-2-methyl-N-(1-(3-phenoxyphenyl)cyclopropyl)benzamide] and Cc1ccc(C2(NC(=O)c3cc(OCCN(C)C)ccc3C)CC2)cc1 [Compound 253, 5-(2-(Dimethylamino)ethoxy)-2-methyl-N-(1-(p-tolyl)cyclopropyl)benzamide] cannot be ordered by pIC50: < 5.30 for the first, < 5.30 for the second.

Compared with CC(c1cccc2ncccc12)N1CCC(C(=O)NCc2cccc(F)c2)CC1 (stereo not drawn) [Compound 549, N-(3-Fluorobenzyl)-1-(1-(quinolin-5-yl)ethyl)piperidine-4-carboxamide], COc1cc(C(C)N2CCC(C(=O)NCc3cccc(F)c3)CC2)c2ccccc2c1 (stereo not drawn) [Compound 524, N-(3-Fluorobenzyl)-1-(1-(3-methoxynaphthalen-1-yl)ethyl)piperidine-4-carboxamide] is higher in pIC50: < 5.30 for the first, 6.00 to 7.00 for the second.

Cc1ccc(N)cc1C(=O)NS(=O)(=O)c1cccc2ccccc12 [Compound 242, 5-Amino-2-methyl-N-(naphthalen-1-ylsulfonyl)benzamide] was tested, and the pIC50 was < 5.30.
